# Source: patent US20260092054A1, “FUSED RING COMPOUND AND PHARMACEUTICAL CONTAINING SAME” (KAKEN PHARMACEUTICAL CO., LTD., priority 2022, published 2026)
# Assays:
# human STAT6 = experiment: Human STAT6 dependent reporter activity (IL-4 stimulated STAT6 reporter assay using STAT6-HEK293 cells); format: cell-based; conditions: IL-4 stimulation, luciferase activity; for inhibition at 0.1 µM / inhibition at 1 µM: Homo sapiens, read-out: Inhibition rate (%)
# human STAT6/pIL-4Rα = molecular target: T1, human STAT6/pIL-4Rα (Homo sapiens, UniProt P42226); experiment: Binding inhibitory activity between human STAT6/pIL-4Rα by fluorescence polarization method; conditions: rhSTAT6 (123-658) / FAM-pIL-4Rα peptide
# T1 construct: histidine tag
# T1 sequence (P42226 123-658): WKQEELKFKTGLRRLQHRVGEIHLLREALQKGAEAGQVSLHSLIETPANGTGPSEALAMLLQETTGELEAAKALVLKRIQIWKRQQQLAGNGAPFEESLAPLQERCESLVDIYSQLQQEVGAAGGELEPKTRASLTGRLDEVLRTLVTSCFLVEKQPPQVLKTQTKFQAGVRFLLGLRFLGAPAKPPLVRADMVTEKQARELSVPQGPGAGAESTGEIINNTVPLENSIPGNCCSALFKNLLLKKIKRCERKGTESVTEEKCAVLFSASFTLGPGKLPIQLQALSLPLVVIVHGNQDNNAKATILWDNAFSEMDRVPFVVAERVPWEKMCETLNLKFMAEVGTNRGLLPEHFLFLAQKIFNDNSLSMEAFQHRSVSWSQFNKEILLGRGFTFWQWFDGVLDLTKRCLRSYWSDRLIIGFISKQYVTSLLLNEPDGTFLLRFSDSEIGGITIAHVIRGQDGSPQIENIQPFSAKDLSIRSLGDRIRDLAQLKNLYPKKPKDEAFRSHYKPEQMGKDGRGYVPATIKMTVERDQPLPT
# In short: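 His-tagged human STAT6 (residues 123–658, E. coli-expressed) was preincubated with compound for 30 min at RT in the dark, in buffer e.g. 50 mM NaCl, 10 mM HEPES pH 7.0, 1 mM DTT, 1 mM EDTA, 0.01% NP-40. FAM-pIL-4Rα peptide was then added for 30 min. Fluorescence polarisation was read at 485/535 nm, with IC50 interpolated linearly between two points flanking 50%.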
Structure (SMILES),inhibition at 0.1 µM (human STAT6; compound 0.1 μmol/L) [%],IC50 (human STAT6/pIL-4Rα) [nM],inhibition at 1 µM (human STAT6; compound 1 μmol/L) [%],Inhibition rate (%) (human STAT6; compound 0.1 μmol/L),Inhibition rate (%) (human STAT6; compound 1 μmol/L)
CCn1c(-c2ccc(-n3cnn(C)c3=O)cc2)cc2cc(C(F)(F)F)cc(C(=O)Nc3cccc(C(N)=O)c3)c21 [Ex. 35],100,350,–,–,–
CCn1c(-c2ccc(-n3c(C)nn(C)c3=O)cc2)cc2cc(C(F)(F)F)cc(C(=O)Nc3cccc(C(N)=O)c3)c21 [Ex. 37],96,250,100,–,–
CCn1c(-c2ccc(-n3cnn(C)c3=O)cc2)cc2cc(C(F)(F)F)cc(C(=O)Nc3ccc(F)c(C(N)=O)c3)c21 [Ex. 38],–,330,100,99,–
CCn1c(-c2ccc(-n3c(C)nn(C)c3=O)cc2)cc2cc(C(F)(F)F)cc(C(=O)Nc3ccc(F)c(C(N)=O)c3)c21 [Ex. 39],84,1200,99,–,–
CCn1c(-c2ccc(-n3c(C)nn(C)c3=O)cc2)cc2cc(C(F)(F)F)cc(C(=O)Nc3cccc(C(=O)NC)c3)c21 [Ex. 40],92,290,100,–,–
COCCn1c(-c2ccc(-n3cnn(C)c3=O)cc2)cc2cc(C(F)(F)F)cc(C(=O)Nc3ccc(F)c(C(N)=O)c3)c21 [Ex. 41],92,280,100,–,–
COCCn1c(-c2ccc(-n3cnn(C)c3=O)cc2)cc2cc(C(F)(F)F)cc(C(=O)Nc3cccc(C(N)=O)c3F)c21 [Ex. 42],90,260,100,–,–
CNC(=O)c1cccc(NC(=O)c2cc(C(F)(F)F)cc3cc(-c4ccc(-n5cnn(C)c5=O)cc4)n(CCOC)c23)c1 [Ex. 43],93,250,100,–,–
CNC(=O)c1cccc(NC(=O)c2cc(C(F)(F)F)cc3cc(-c4ccc(-n5c(C)nn(C)c5=O)cc4)n(CCOC)c23)c1 [Ex. 44],93,170,100,–,–
CCn1c(-c2ccc(-n3cnn(C)c3=O)cc2)cc2cc(C(F)(F)F)cc(C(=O)Nc3ccc(F)c(C(N)=O)c3)c21 [Ex. 45],–,250,–,63,100
Cn1ncn(-c2ccc(-c3cc4cc(C(F)(F)F)cc(C(=O)Nc5ccc(F)c(C(N)=O)c5)c4[nH]3)cc2)c1=O [Ex. 46],81,450,100,–,–
CCn1c(-c2ccc(-n3ncn(C)c3=O)cc2)cc2cc(C(F)(F)F)cc(C(=O)Nc3cccc(C(N)=O)c3F)c21 [Ex. 47],43,1000,95,–,–
CCn1c(-c2ccc(-n3ncn(C)c3=O)cc2)cc2cc(C(F)(F)F)cc(C(=O)Nc3cccc(C(N)=O)c3)c21 [Ex. 48],84,340,100,–,–
CCn1c(-c2ccc(-n3c(C)nn(C)c3=O)cc2)cc2c(C(F)(F)F)ccc(C(=O)Nc3cccc(C(N)=O)c3F)c21 [Ex. 49],97,310,100,–,–
CCn1c(-c2ccc(-n3c(C)nn(C)c3=O)cc2)cc2cc(C#N)cc(C(=O)Nc3ccc(F)c(C(N)=O)c3)c21 [Ex. 50],42,560,99,–,–
CNC(=O)c1cc(NC(=O)c2cc(C(F)(F)F)cc3cc(-c4ccc(-n5c(C)nn(C)c5=O)cc4)n(CCOC)c23)ccc1F [Ex. 51],13,490,82,–,–
COCCn1c(-c2ccc(-n3c(C)nn(C)c3=O)cc2)cc2cc(C(F)(F)F)cc(C(=O)Nc3cccc(C#N)c3)c21 [Ex. 52],52,190,100,–,–
CCn1c(-c2ccc(-n3c(C)nn(C)c3=O)cc2)cc2cc(Cl)cc(C(=O)Nc3ccc(F)c(C(N)=O)c3)c21 [Ex. 56],94,270,100,–,–
CCn1c(-c2ccc(-n3c(C)nn(C)c3=O)cc2)cc2nccc(C(=O)Nc3ccc(F)c(C(N)=O)c3)c21 [Ex. 57],89,490,100,–,–
CCn1c(-c2ccc(-n3c(C)nn(C)c3=O)cc2)cc2nccc(C(=O)Nc3cccc(C(N)=O)c3F)c21 [Ex. 59],83,390,99,–,–
CCn1c(-c2ccc(-n3c(C)nn(C)c3=O)cn2)cc2cc(C(F)(F)F)cc(C(=O)Nc3ccc(F)c(C(N)=O)c3)c21 [Ex. 61],93,470,100,–,–

Structure (SMILES),inhibition at 0.1 µM (human STAT6; compound 0.1 μmol/L) [%],IC50 (human STAT6/pIL-4Rα) [nM],inhibition at 1 µM (human STAT6; compound 1 μmol/L) [%],Inhibition rate (%) (human STAT6; compound 0.1 μmol/L),Inhibition rate (%) (human STAT6; compound 1 μmol/L)
COCCn1c(-c2ccc(-n3c(C)nn(C)c3=O)cc2)cc2cc(C(F)(F)F)cc(C(=O)Nc3ccc4c(c3)C(=O)NCC4)c21 [Ex. 62],59,450,99,–,–
CCn1c(-c2ccc(-n3cnn(C)c3=O)cn2)cc2cc(C(F)(F)F)cc(C(=O)Nc3cccc(C(N)=O)c3F)c21 [Ex. 65],50,440,98,–,–
CCn1c(-c2ccc(N3CCOCC3=O)cc2)cc2cc(C(F)(F)F)cc(C(=O)Nc3cccc(C(N)=O)c3F)c21 [Ex. 66],58,320,99,–,–
Cc1nn(C)c(=O)n1-c1ccc(-c2cc3cc(C(F)(F)F)cc(C(=O)Nc4ccc(F)c(C(N)=O)c4)c3n2CC2CC2)cc1 [Ex. 67],56,580,96,–,–
CCn1c(-c2ccc(-n3c(C)nn(C)c3=O)cc2)cc2c(Cl)ccc(C(=O)Nc3ccc(F)c(C(N)=O)c3)c21 [Ex. 68],59,350,100,–,–
COCCn1c(-c2ccc(-n3c(C)nn(C)c3=O)cc2)cc2cc(C(F)(F)F)cc(C(=O)Nc3ccccn3)c21 [Ex. 69],61,290,100,–,–
COCCn1c(-c2ccc(-n3c(C)nn(C)c3=O)cc2)cc2cc(C(F)(F)F)cc(C(=O)Nc3cccnc3OC)c21 [Ex. 70],-6,760,45,–,–
CCn1c(-c2ccc(-n3c(C)nn(C)c3=O)cc2F)cc2cc(C(F)(F)F)cc(C(=O)Nc3ccc(F)c(C(N)=O)c3)c21 [Ex. 72],65,340,97,–,–
COCCn1c(-c2ccc(-n3c(C)nn(C)c3=O)cc2)cc2cc(C(F)(F)F)cc(C(=O)Nc3ccc(C)nc3)c21 [Ex. 73],72,370,100,–,–
CCn1c(-c2ccc(-n3c(C)nn(C)c3=O)cc2)cc2nc(C(F)(F)F)cc(C(=O)Nc3ccc(F)c(C(N)=O)c3)c21 [Ex. 74],21,480,91,–,–
CCn1c(-c2ccc(-n3c(C)nn(C)c3=O)cc2)cc2nc(C(F)(F)F)cc(C(=O)Nc3cccc(C(N)=O)c3F)c21 [Ex. 75],36,360,93,–,–
CCn1c(-c2ccc(-n3c(C)nn(C)c3=O)cc2)cc2c(F)ccc(C(=O)Nc3ccc(F)c(C(N)=O)c3)c21 [Ex. 76],31,360,94,–,–
CCn1c(-c2ccc(-n3c(C)nn(C)c3=O)cc2)cc2c(F)ccc(C(=O)Nc3cccc(C(N)=O)c3F)c21 [Ex. 77],73,590,99,–,–
COCCn1c(-c2ccc(-n3c(C)nn(C)c3=O)cc2)cc2cc(C(F)(F)F)cc(C(=O)Nc3cccc(OC)n3)c21 [Ex. 78],89,340,100,–,–
COCCn1c(-c2ccc(-n3c(C)nn(C)c3=O)cc2)cc2cc(C(F)(F)F)cc(C(=O)Nc3ccnn3C)c21 [Ex. 80],4,400,61,–,–
CCn1c(-c2ccc(-n3c(C)nn(C)c3=O)cc2)cc2cc(C(F)(F)F)nc(C(=O)Nc3cccc(C(N)=O)c3F)c21 [Ex. 83],68,370,98,–,–
COCCn1c(-c2ccc(-n3c(C)nn(C)c3=O)cc2)cc2cc(C(F)(F)F)cc(C(=O)Nc3nnc(C)s3)c21 [Ex. 84],93,240,100,–,–
COCCn1c(-c2ccc(-n3c(C)nn(C)c3=O)cc2)cc2cc(C(F)(F)F)cc(C(=O)Nc3nccs3)c21 [Ex. 85],11,340,73,–,–
COCCn1c(-c2ccc(-n3c(C)nn(C)c3=O)cc2)cc2cc(C(F)(F)F)cc(C(=O)Nc3ccnnc3)c21 [Ex. 88],9,420,76,–,–
COCCn1c(-c2ccc(-n3c(C)nn(C)c3=O)cc2)cc2cc(C(F)(F)F)nc(C(=O)Nc3ccc(F)c(C(N)=O)c3)c21 [Ex. 90],63,280,99,–,–
